Patent publication US20050244906A1, “Detection kit, assay plate to be used therein, detection method, evaluation method, polyclonal antibody of frog vitellogenin and process for producing the same” (priority 2002, published 2005)
Like-named read-outs stand apart in the source and are kept apart here.

Key:
[1] = test system: adult male Xenopus laevis; experiment: Exposure in water of adult male Xenopus laevis; vitellogenin quantified by ELISA sandwich method; format: in vivo
Method: Adult male Xenopus laevis of same age (two years and half old) were used. Every five thereof were bred in each of a water bath where one in which in 20 L of dechlorinated tap water E2 dissolved in DMSO was added was filled (experimental group) and a water bath where one in which in 20L of dechlorinated tap water the same amount of DMSO that is a solvent was added is filled (comparative group). Exposure concentrations of the E2 were five levels of 0.1 nM, 1 nM, 10 nM, 100 nM and 1000 nM, and, at 3.5 days during a breeding period of 7 days, the breeding water was once exchanged. A water temperature was set at 22 degrees centigrade, bright and dark periods each were set at 12 hr, and during a test period bait was not fed.
At the detection of the vitellogenin, two samples of a blood serum and a liver homogenate were used and compared to study.
A. Sampling of Blood Serum
1. To an abdominal cavity of a frog, 0.5 to 1.0 ml of an anesthetic agent (20 mg/ml aminobenzoic acid ethyl ester) was injected.
2. An operation was performed, and 0.2 ml of blood was sampled from a pulsating heart with a syringe in a tube and placed on ice.
3. A centrifugal process was applied at 15000 rpm, at 4 degrees centigrade for 10 min, followed by sampling a supernatant.
4. Dilution was applied at a factor of 10 with a 20 mM of an EDTA-0.2 percent Tween 20-PBS solution followed by refrigerating and preserving (in the case of long preservation, by freezing and preserving).
The diluted sample was quantified of the vitellogenin according to the ELISA sandwich method.
1. After the sampling of blood, a liver piece was cut to substantially 0.05 to 0.1 g followed by weighing.
2. In a tube where the liver piece put, 1 ml of 20 mM EDTA-0.5% Tween 20-PBS solution was added.
3. The liver was homogenized over ice.
4. A centrifugal process was applied at 15000 rpm, at 4 degrees centigrade for 10 min, followed by sampling a supernatant, further followed by refrigerating and preserving (in the case of long preservation, by freezing and preserving).
The diluted sample was quantified of the vitellogenin by ELISA sandwich.

[2] = test system: hepatocyte in primary culture of an adult male Xenopus laevis; experiment: VTG synthesis induction in primary hepatocyte culture, VTG in culture liquid by ELISA; format: cell-based; conditions: for estrogenic activity detected, equivalent E2 concentration: primary hepatocyte culture
Method: • 10×perfusate (0.14% KCl, 5.5% NaCl, 0.44% pyruvate, 1% glucose, 2.38% HEPES, 5% BSA and 0.2% NaHCO3) • Collagenase perfusate (1×perfusate is controlled to pH 7.2 to 7.5 with phenol red to prepare a solution of 0.1% collagenase. Filtration and sterilization) • Culture liquid (50% L-15, 1 μg/ml insulin, 0.5% glucose and antibiotics) B: Sampling Method of Hepatocyte […] A frog is sterilized in potassium permanganate (5 mg/ml) for 2 hr or more (superficial skin color becomes brown). 2. An anesthetic (20 mg/ml-aminobenzoic acid ethylester) is injected by 0.5 to 1.0 ml to an abdominal cavity. 3. A ventral skin is thoroughly sterilized with a cotton bud wetted with alcohol, followed by operating. 4. A heart is exposed, a syringe is inserted from a cardiac chamber, and a collagenase perfusate is sent in through a hepatic vein by use of a […] pump to perfuse a liver. 5. The liver is taken out and transferred in a beaker, followed by cutting small with a pair of scissors. 6. Transferring into an L-tube together with a small amount of collagenase perfusate. 7. Shaking for 30 to 60 min in an incubator at 24 degrees centigrade. 8. Suspending thoroughly with a pipette, followed by filtering through a nylon mesh. 9. A slight amount of culture liquid is added, followed by centrifuging at 300 rpm for 1 to 2 min. […] A centrifugal supernatant is sucked and removed, followed by centrifuging a culture liquid once more (this operation is repeated twice). 11. […] 12. Seeding every 100 to 300 μl to a microplate (substantially 20,000 pieces/well is better). 13. Cultivating in an incubator at 24 degrees centigrade. […] In the case of the E2 processing, it is known that from the third day on after the processing vitellogenin can be detected in the culture liquid; however, since survived hepatocytes in culture are stable for three weeks, for the test of a substance low in the activity, evaluation is carried out for a longer period. As one of applications of the ELISA KIT, an application to the quantification of VTG concentration in a liquid Xenopus laevis hepatocyte culture was studied as well. […] Of a culture liquid after 6 days from the start of culturing (exchanged on the third day), the quantification of the VTG concentration was carried out with the ELISA KIT. By combining the exposure test to hepatocytes in primary culture and the ELISA, an application to a quantitative screening method of the estrogen activity of various chemicals was studied. […] According to a method similar to (Example 2-2), primary cultured hepatocytes of an adult male Xenopus laevis were prepared, followed by culturing in a culture liquid containing one of the chemicals, and with a culture liquid after 6 days, according to the ELISA, a VTG concentration in the culture liquid was quantified.

[3] = test system: adult male Xenopus laevis; experiment: Injection method in adult male Xenopus laevis; vitellogenin quantified by ELISA sandwich method; format: in vivo
Method: Adult male Xenopus laevis same in the age as A were used. Five thereof in which an E2 solution was injected by means of injection (experimental group) and another five thereof in which propylene glycol that was a solvent was injected by use of an injection by substantially 200 μl (comparative group) were bred in a glass water bath filled with 20 L of dechlorinated tap water. Exposure concentrations of E2 were five levels of 0.002 μg/g BW, 0.02 μg/g BW, 0.2 μg/g BW, 2 μg/g BW and 20 μg/g BW, and, during a breeding period of 7 days, reinjection was once (at 3.5 days) applied. A water temperature was set at 22 degrees centigrade, bright and dark periods each were set at 12 hr, and during a test period bait was not fed. At the injection, individual organisms were measured of weight and substantially 200 μl of the E2 solution was injected so as to be a set concentration. At the detection of the vitellogenin, two samples of a blood serum and a liver homogenate were used and compared to study. A. Sampling of Blood Serum 1. To an abdominal cavity of a frog, 0.5 to 1.0 ml of an anesthetic agent (20 mg/ml aminobenzoic acid ethyl ester) was injected. 2. An operation was performed, and 0.2 ml of blood was sampled from a pulsating heart with a syringe in a tube and placed on ice. 3. […] The diluted sample was quantified of the vitellogenin according to the ELISA sandwich method.

[4] = test system: hepatocyte in primary culture of an adult male Xenopus laevis; format: cell-based
Excerpt: Furthermore, by use of the assay system, the antagonist activity of a target substance could be evaluated.

C[C@]12CC[C@@H]3c4ccc(O)cc4CC[C@H]3[C@@H]1CC[C@@H]2O [E2, 17β-estradiol]
E2 concentration at which blood plasma VTG / VTG synthesis induction can be detected with the ELISA KIT ([1]; exposure in water for 7 days, adult male, ELISA KIT): ≥ 1 nM | vitellogenin response at 100 nM ([1]; exposure in water, 7 days, 100 nM): obviously rose high | vitellogenin synthesis at 1000 nM ([1]; exposure in water, 7 days, 1000 nM): does not increase | E2 concentration from which vitellogenin response was observed ([1]; exposure in water, 7 days, adult male): ≥ 10 nM | concentration range of abrupt rise of vitellogenin ([1]; exposure method in water): 10 to 100 nM | production quantity of the vitellogenin ([1]; exposure method in water, 100 nM): ~13000 μg/ml | concentration at which vitellogenin synthesis reaches the maximum ([2]; cultivated hepatocyte): lower than 1000 nM | exposure concentration giving significant concentration-dependent increase in vitellogenin concentration ([2]; hepatocyte in culture, culture liquid, ELISA): ≥ 0.6 nM | estrogenic activity detected, equivalent E2 concentration ([2]; ELISA KIT): ~0.1 nM | estrogenic activity detected, equivalent E2 concentration ([2]; ELISA with biotinylated antibody): ~0.03 nM | dose dependence of vitellogenin response [3]: increased dependent on an administered amount | production quantity of the vitellogenin ([3]; at 73 nM (assumed uniform diffusion in body)): ~14000 μg/ml

nonylphenol [NP]
antagonist activity on VTG synthesis induction due to 5 nM E2 [4]: antagonistic activity was exhibited

CC(C)(c1ccc(O)cc1)c1ccc(O)cc1 [BPA, bisphenol A]
antagonist activity on VTG synthesis induction due to 5 nM E2 ([4]; co-culture with 5 nM E2, increasing concentration of added chemical): antagonistic activity was exhibited
